Patent EP1462117A1, “Method for in vivo detection of antipsychotic properties of dopamine D3 receptor ligands” (priority 2003, dated 2004)
Where “and” joins values, the source holds several entries; their conditions need not be identical. Equal values may be shown once.

How the values were obtained:
Swiss mice [1] = assay: MK-801 (dizocilpine)-induced and spontaneous locomotor activity, acute treatment, actimeter; type: in vivo; conditions: for MK-801-induced hyperactivity: post-hoc vs saline
Method: (§1) Male Swiss mice (Iffa Credo, France), weighing 25-30 g, were housed four per cage (25 × 15 × 13 cm), on a 12 hr/12 hr light/dark cycle (lights on at 07:00 a.m.), with food and water ad libitum. […] Experiments with D3R-deficient mice were performed on male homozygous mutant mice and their wild-type littermates. […] The mice used in the present study were backcrossed 7 to 8 times.
Haloperidol (Janssen Pharmaceuticals, Beerse, Belgium) and clozapine (Novartis, Basel, Switzerland) were dissolved in a few drops of hydrochloric acid and distilled water, and the pH of the solution was adjusted to pH 5 to 6 using NaOH. […] The compounds were injected i.p. in a volume of 5 ml/kg.
(§2) All experiments were conducted between 2.00 p.m. and 6.00 p.m., and the animals were kept in the test room at least 1 h before recording their activity. […] Counts for forward horizontal activity were incremented each time the animal moved from one-half part of the cage to the other, corresponding to disruption of two crossed parallel beams distant of 14 cm. In time-course studies, counts were summed every 5 min.
(§3) Between-group differences were analyzed with the Statistica™ software using two-way analysis of variance (ANOVA) and Least Significance Difference (LSD) post-hoc test. The analysis of data obtained with the same animals evaluated on several occasions (time-course experiments), between-within univariate or multivariate ANOVA for repeated measures were used (time being the repeated measure).
To assess simply the in vivo biological activity of the novel compound at the D3 receptor, the above described test, in which hyperlocomotion induced by low doses of dizocilpine is measured, was used.

wild-type (D3R^+/+) mice = assay: MK-801-induced locomotor activity in wild-type mice; type: in vivo
Method: Male Swiss mice (Iffa Credo, France), weighing 25-30 g, were housed four per cage (25 × 15 × 13 cm), on a 12 hr/12 hr light/dark cycle (lights on at 07:00 a.m.), with food and water ad libitum. […] Experiments with D3R-deficient mice were performed on male homozygous mutant mice and their wild-type littermates. […] Subsequently, these mice were backcrossed up to 8 times with C57BL6 mice. The mice used in the present study were backcrossed 7 to 8 times.
as §2
(§4) In addition, another experiment was performed with two groups of 8 mice of each genotype, injected with either saline or haloperidol (0.05 mg/kg).
as §3

[2] = test system: D3 receptor-deficient mice (D3R^-/-); assay: MK-801-induced locomotor activity in D3 receptor-deficient mice; type: in vivo; conditions: compound 1 mg/kg; MK-801 […]; D3R^-/- mice
Method: as §1, §2, §4, §3

Swiss mice [3] = assay: Locomotor hyperactivity induced by continuous infusion of MK-801 (osmotic minipumps); type: in vivo
Method: Male Swiss mice (IFFA CREDO, France), weighing 26-28 g, were housed six per cage (25 × 15 ×13 cm), on a 12 h/12 h light/dark cycle (lights on at 07:00 a.m.), with food and water freely available. Room temperature ranged from 20° to 22°C and humidity varied between 55% and 65%.
Dizocilpine, as (+)-MK-801 maleate (Sigma), dissolved in 0.9% NaCl (saline), and its respective vehicle solution, was continuously infused via osmotic minipumps (Model 1007D, Alzet Corp.). Minipumps were filled 6 h prior to implantation and placed in a sterile saline water bath at 37°C. Taking into consideration the average weight of the mice at the time of testing, and the rate of the minipump delivery (specified by the manufacturer), the MK-801 concentration was adjusted to deliver 0.01 or 0.02 mg/kg/hr (0.48 mg/kg/day). Mice were anaesthetized with chloral hydrate (400 mg/kg i.p.), and an area on the back of the mice was shaved and cleaned with 70% ethanol. A small incision was made, a pocket beneath the skin was formed and the minipump was placed inside the pocket in each mouse. The incision was sutured, and cleaned with 70% ethanol. The mice were returned in their home cage and in about 2 h they had recovered and were active.
Once the minipumps implanted (Day 0), the locomotor activity was measured for 1h, at days 2, 4 and 7 in an actimeter (Imetronic, Pessac, France).
(§5) Between-group differences were analyzed with the Statistica™ software using two-way analysis of variance (ANOVA) and Least Significance Difference (LSD) post-hoc test. The analysis of data obtained with the same animals evaluated on several occasions (time-course experiments), between-within univariate or multivariate ANOVA for repeated measures were used (time being the repeated measure). Data from the resident-intruder assay were analyzed by analysis of variance (ANOVA), followed by a Tukey-Kramer Multiple Comparison post-hoc test.

MK-801-treated mice = assay: Resident-intruder assay in MK-801-treated mice; type: in vivo; conditions: MK-801 0.02 mg/kg/h for 7 days; compound 1 mg/kg i.p. 30 min prior testing; 5 min
Method: Male mice were housed individually or in groups of five for at least 1 week prior to minipump implantation (Day 0), delivering MK-801 (0.02 mg/kg/h) or saline (Sham), and were tested at day 7. As described in Dixon et al. (1994), a group-housed male (intruder) was placed in the home cage of the individually housed male (resident), and their behaviors were video recorded for 5 min. […] The videotaped behaviors of the resident or intruder male were individually scored, by an experimenter unaware of the treatment group, for time spent in social investigation (approaching, sniffing, grooming other mouse, and sexual behavior), and in escape behavior (actively avoiding the unfamiliar congener). The scores for each behavior were subsequently averaged for each group.
as §5

PD-like rats = assay: Rotations in PD-like rats (6-hydroxydopamine lesion, levodopa-treated); type: in vivo; conditions: saline 108 ± 7
[4] = Plasma concentrations in monkeys (radioreceptor assay); type: in vivo
[5] = Plasma concentrations in mice; type: in vivo; conditions: after injection at a dose giving selective effects at the D3 receptor; n = 6
MPTP-intoxicated monkeys = assay: Levodopa-induced dyskinesia, PD-like symptoms and locomotor activity in MPTP-intoxicated monkeys

With `COc1ccccc1N1CCN(CCCCNC(=O)c2ccc3ccccc3c2)CC1` [BP 897, 1-(4-(2-Naphthoylamino)butyl)-4-(2-methoxyphenyl)-1A-piperazine] the “activity with MK-801” value (Swiss mice [1]; MK-801 […], 60 min, compound i.p. 0.1, 0.3, 1 mg/kg (haloperidol 0.03, 0.1, 0.3 mg/kg), overall dose-response) was “dose-dependently reduced”, the “level to which locomotor activity in MK-801-treated mice was reduced” value (Swiss mice [1]; MK-801 […], level corresponds to saline-treated mice) was 30-40% and the MK-801-induced hyperactivity (Swiss mice [1]; compound 0.3 mg/kg i.p., MK-801 […]) was “significantly reduced”. For the same compound, the MK-801-induced hyperactivity (Swiss mice [1]; compound 1 mg/kg i.p., MK-801 […]) was “significantly reduced”, the “decrease of the activity in the presence of MK-801” value (Swiss mice [1]; compound 1 mg/kg, MK-801 0.3 mg/kg, statistically non significant) was 10-15% and the spontaneous activity (Swiss mice [1]; habituation phase, 30 min starting 5 min after injection, all doses tested) was “without any effect”. For the same compound, the “minimal active dose to reduce the hyperactivity induced by 0.3 mg/kg of MK-801” value (wild-type (D3R^+/+) mice; D3R^+/+ and D3R^-/- mice) was 3 mg/kg, the MK-801-induced activity (wild-type (D3R^+/+) mice; compound 1 mg/kg, MK-801 […], D3R^+/+ mice) was “inhibited” and the “spontaneous activity during the habituation phase” value (wild-type (D3R^+/+) mice; compound 1 mg/kg, experiment with D3R^+/+ and D3R^-/- mice) was “Neither of the drugs affected”. The “locomotor response to MK-801” value [2] was “no longer able to inhibit”, the MK-801-induced hyperactivity (Swiss mice [3]; acute administration on the 10th day after minipump implantation, clozapine 1 mg/kg, haloperidol 0.3 mg/kg, BP 897 1 mg/kg) was “effect similar to that produced by clozapine or haloperidol” and the spontaneous hyperactivity (Swiss mice [3]; subchronic treatment twice a day for 4.5 days from day 6, BP 897 1 mg/kg, haloperidol 0.3 mg/kg, recorded at least 6 hours after last administration) was “reversed”. The methamphetamine-induced hyperactivity (Swiss mice [3]; subchronic treatment twice a day for 4.5 days from day 6, methamphetamine 1 mg/kg, recorded at least 6 hours after last administration) was “reversed”, the Social investigations (MK-801-treated mice) was “restored” and the escape behavior (MK-801-treated mice) was “completely normalized”. For the same compound, the numbers of rotations (PD-like rats; BP 897 0.1 mg/kg with levodopa 50 mg/kg, n = 8) was 89 ± 10, the numbers of rotations (PD-like rats; BP 897 0.3 mg/kg with levodopa 50 mg/kg, n = 17) was 91 ± 12 and the numbers of rotations (PD-like rats; BP 897 1.0 mg/kg with levodopa 50 mg/kg, n = 13) was 68 ± 8. For the same compound, the numbers of rotations (PD-like rats; BP 897 3.0 mg/kg with levodopa 50 mg/kg, n = 13) was 66 ± 12, the maximal plasma concentration ([4]; BP 897 5.0 or 10 mg/kg orally) was 280 ± 110 nM and the “time of maximal plasma concentration” value ([4]; monkey, in vivo) was 60 min. The half-life ([4]; monkey, plasma) was ~1 h, the plasma concentration [5] was 130 ± 14 nM and the “attenuation of LID” value (MPTP-intoxicated monkeys; calculated from areas under curve, BP 897 5.0 or 10 mg/kg orally with levodopa) was 66%. The on-time duration (MPTP-intoxicated monkeys; from activity counts, threshold at 30% of the maximal activity, over 5 hr) was “no difference with placebo”, the “antidyskinetic effect along repeated administrations” value (MPTP-intoxicated monkeys; one monkey, BP 897 12 times) was “did not show any obvious signs of decline” and the “dose reaching a maximal effect on LID” value (MPTP-intoxicated monkeys; tailored for each monkey, oral, with a fixed dose of levodopa, 5.0 (n = 1), 10 (n = 4)) was 5.0 mg/kg and 10 mg/kg. The “locomotor activity (activity counts)” value (MPTP-intoxicated monkeys; with levodopa) was “undermine the levodopa-induced activity around the dyskinesia threshold” and the “antiparkinson activity of the compound alone” value (MPTP-intoxicated monkeys; without levodopa, two dyskinetic monkeys) was “no antiparkinson activity”.
